Experimental data taken from PubChem BioAssay (NCI).
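How tested: cells in 96-well plates exposed to compound for 48 hours at five concentrations. Abbreviation: GI50, concentration required for 50% inhibition of growth. At the TGI there is no net growth.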

Tests used:
Test in all cases: inhibition of tumour cell growth, NCI panel, 48 h
[1] = tested on: SNB-19 CNS
[2] = tested on: SF-295 CNS
[3] = tested on: NCI-H522 lung
[4] = tested on: DU-145 prostate
[5] = tested on: OVCAR-4 ovarian
[6] = tested on: HCT-15 colon
[7] = tested on: HOP-92 NSCLC
[8] = tested on: LOX IMVI melanoma
[9] = tested on: COLO 205 colon
[10] = tested on: A549 NSCLC
[11] = tested on: SF-539 CNS
[12] = tested on: UACC-257 melanoma
[13] = tested on: IGROV1 ovarian
[14] = tested on: RXF 393 renal
[15] = tested on: SN12C renal
[16] = tested on: T-47D breast
[17] = tested on: NCI-H226 lung
[18] = tested on: EKVX NSCLC
[19] = tested on: MDA-MB-435
[20] = tested on: SW-620 colon
[21] = tested on: UACC-62 melanoma
[22] = tested on: MCF7 breast
[23] = tested on: NCI-H23 lung
[24] = tested on: SK-MEL-2 melanoma
[25] = tested on: NCI-H460 lung
[26] = tested on: BT-549 breast
[27] = tested on: U251 CNS
[28] = tested on: OVCAR-5 ovarian
[29] = tested on: HCC-2998 colon
[30] = tested on: PC-3 prostate
[31] = tested on: MDA-MB-231 breast
[32] = tested on: ACHN renal
[33] = tested on: SK-OV-3 ovarian
[34] = tested on: UO-31 renal
[35] = tested on: A498 renal
[36] = tested on: 786-0 renal
[37] = tested on: HT29 colon
[38] = tested on: SK-MEL-5 melanoma
[39] = tested on: MALME-3M melanoma
[40] = tested on: SK-MEL-28 melanoma
[41] = tested on: HS 578T breast
[42] = tested on: TK-10 renal
[43] = tested on: M14 melanoma
[44] = tested on: SF-268 CNS
[45] = tested on: OVCAR-3 ovarian
[46] = tested on: KM12 colon

## Cn1cc(-c2csc(-c3cn(CCCN4CCCCC4)c4ccccc34)n2)c2cccnc21
[1]
  GI50: 1.83 µM
  TGI: 3.34 µM
[2]
  GI50: 1.71 µM
  TGI: 3.18 µM
[3]
  GI50: 17.8 µM
  TGI: 41 µM
[4]
  GI50: 1.75 µM
  TGI: 3.17 µM
[5]
  GI50: 2.02 µM
  TGI: 4.07 µM
[6]
  GI50: 1.7 µM
  TGI: 3.2 µM
[7]
  GI50: 13.3 µM
  TGI: 35.2 µM
[8]
  GI50: 1.66 µM
  TGI: 3.11 µM
[9]
  GI50: 1.82 µM
  TGI: 3.61 µM
[10]
  GI50: 1.97 µM
  TGI: 3.6 µM
[11]
  GI50: 1.62 µM
  TGI: 3.08 µM
[12]
  GI50: 1.96 µM
  TGI: 3.65 µM
[13]
  GI50: 1.61 µM
  TGI: 3.35 µM
[14]
  GI50: 1.59 µM
  TGI: 3.14 µM
[15]
  GI50: 1.79 µM
  TGI: 3.31 µM
[16]
  GI50: 17.4 µM
  TGI: 51.3 µM
[17]
  GI50: 2.55 µM
  TGI: 7.62 µM
[18]
  GI50: 16.3 µM
  TGI: 34.5 µM
[19]
  GI50: 1.87 µM
  TGI: 3.47 µM
[20]
  GI50: 1.95 µM
  TGI: 3.74 µM
[21]
  GI50: 1.87 µM
  TGI: 3.46 µM
[22]
  GI50: 1.65 µM
  TGI: 3.29 µM
[23]
  GI50: 1.82 µM
  TGI: 3.62 µM
[24]
  GI50: 18.8 µM
  TGI: 38.5 µM
[25]
  GI50: 2.04 µM
  TGI: 4 µM
[26]
  GI50: 1.56 µM
  TGI: 2.94 µM
[27]
  GI50: 1.87 µM
  TGI: 3.38 µM
[28]
  GI50: 1.63 µM
  TGI: 3.13 µM
[29]
  GI50: 1.68 µM
  TGI: 3.23 µM
[30]
  GI50: 1.74 µM
  TGI: 3.3 µM
[31]
  GI50: 1.77 µM
  TGI: 3.32 µM
[32]
  GI50: 1.63 µM
  TGI: 3.01 µM
[33]
  GI50: 19.3 µM
  TGI: 42.7 µM
[34]
  GI50: 1.51 µM
  TGI: 2.93 µM
[35]
  GI50: 13.7 µM
  TGI: 28.7 µM
[36]
  GI50: 1.53 µM
  TGI: 2.93 µM
[37]
  GI50: 1.89 µM
  TGI: 3.62 µM
[38]
  GI50: 1.82 µM
  TGI: 3.26 µM
[39]
  GI50: 1.61 µM
  TGI: 3.19 µM
[40]
  GI50: 1.7 µM
  TGI: 3.19 µM
[41]
  GI50: 2.55 µM
  TGI: 6.26 µM
[42]
  GI50: 1.6 µM
  TGI: 2.96 µM
[43]
  GI50: 1.82 µM
  TGI: 3.38 µM
[44]
  GI50: 1.72 µM
  TGI: 3.41 µM
[45]
  GI50: 1.7 µM
  TGI: 3.14 µM
[46]
  GI50: 1.72 µM
  TGI: 3.25 µM
